Consider 16 compounds from patent publication US20200199102A1, “COMPOUNDS THAT PARTICIPATE IN COOPERATIVE BINDING AND USES THEREOF” (Revolution Medicines, Inc., priority 2017, published 2020).

The target in this test is T1, Cyclophilin A (Homo sapiens, UniProt P62937).
T1 construct: made in house
Put plainly: AlphaLISA inhibition of binding of biotinylated Cyclosporin A to FLAG tagged Cyclophilin A. The note with it: for % signal: AlphaLISA signal; for % signal / % inhibition of CsA binding to Cyclophilin A: test concentration not given; for IC50: read-out: IC50 value of CsA binding to Cyclophilin A. From the text:
The binding of compounds of the invention to Cyclophilin A can be determined using the following protocol.
This protocol utilizes Perkin Elmers AlphaLISA technology platform to detect cyclosporine analogues by measuring the inhibition of binding of biotinylated Cyclosporin A to FLAG tagged Cyclophilin A.
10×TBST Buffer (Boston BioProducts IBB-181), Biotinylated Cyclosporin A (in-house), FLAG tagged Cyclophilin A (in-house); anti-FLAG Donor beads (PerkinElmer AS103) and Streptavidin Acceptor beads (PerkinElmer AL125); Compounds in DMSO (in-house), Cyclosporin A (LC Labs Cat #C-6000).
Add 20 uL of 6 nM Biotinylated CsA working stock to each well of the 96-well plate. Add 1 uL of test compound (100% DMSO) to each well of the plate using the Janus MTD head and P20 tips (except control wells). Add 1 uL of DMSO to negative control wells and 1 uL of 500 uM Cyclosporin A solution to positive control wells. In the dark, add 20 uL of combined Donor/Acceptor beads to each well. Incubate in the dark for 30 minutes at room temperature. In the dark, add 10 uL of 25 nM Flag tagged CypA working stock to each well. Incubate in the dark for 60 minutes at room temperature. Protect plate from light until reading on Biotek Synergy2 Plate Reader; Alphalisa 96-well protocol (680 excitation/615 emission).
(In general: In Alpha technology, singlet oxygen from a donor bead excites a nearby acceptor bead.)

Where a SMILES comes first, the peptide text is derived from it. [ ]: non-standard residue; d: D form. MeBmt = C/C=C/C[C@@H](C)[C@@H](O)[C@H](NC)C(=O)O; NMeY = CN[C@@H](Cc1ccc(O)cc1)C(=O)O; NMeF = CN[C@@H](Cc1ccccc1)C(=O)O; NMeI = CC[C@H](C)[C@H](NC)C(=O)O; NMeT = CN[C@H](C(=O)O)[C@@H](C)O; NMeL = CN[C@@H](CC(C)C)C(=O)O; NMeV = CN[C@H](C(=O)O)C(C)C; NMeA = CN[C@@H](C)C(=O)O; dNMeA = CN[C@H](C)C(=O)O; Abu = CC[C@H](N)C(=O)O; Sar = CNCC(=O)O Bounds are passed on as bounds.

T1 sequence (P62937 whole entry, species assumed): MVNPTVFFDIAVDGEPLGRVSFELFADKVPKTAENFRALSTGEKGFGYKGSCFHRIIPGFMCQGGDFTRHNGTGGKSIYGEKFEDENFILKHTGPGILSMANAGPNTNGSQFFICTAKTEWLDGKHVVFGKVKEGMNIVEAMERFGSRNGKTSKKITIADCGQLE

What is called IC50 is the concentration that gives 50% inhibition. Turning to `C/C=C/C[C@@H](C)[C@@H](O)[C@H]1C(=O)N[C@@H](CC)C(=O)N(C)CC(=O)N(C)[C@@H]([C@@H](C)CC)C(=O)N[C@@H](C(C)C)C(=O)N(C)[C@@H](C)C(=O)N[C@@H](C)C(=O)N[C@H](C)C(=O)N(C)[C@@H](CC(C)C)C(=O)N(C)[C@@H](CC(C)C)C(=O)N(C)[C@@H](C(C)C)C(=O)N1C` [Compound C1] (cyclo([MeBmt][Abu][Sar][NMeI]V[NMeA]A[dA][NMeL][NMeL][NMeV])), the “% signal” value is listed as 0.56%, the IC50 was less than 2 µM and the “% inhibition of CsA binding to Cyclophilin A” value (from here on “% inhibition of CsA binding”) came out at 99.44%.
Taken in the same sequence, the figures for `C/C=C/C[C@@H](C)[C@@H](O)[C@H]1C(=O)N[C@@H](CC)C(=O)N(C)CC(=O)N(C)[C@@H](C)C(=O)N[C@@H](C(C)C)C(=O)N(C)[C@@H](C)C(=O)N[C@@H](C)C(=O)N[C@H](C)C(=O)N(C)[C@@H](CC(C)C)C(=O)N(C)[C@@H](CC(C)C)C(=O)N(C)[C@@H](C(C)C)C(=O)N1C` [Compound C2] (cyclo([MeBmt][Abu][Sar][NMeA]V[NMeA]A[dA][NMeL][NMeL][NMeV])) were 5.25%, less than 2 µM and 94.75%.
Turning to `C/C=C/C[C@@H](C)[C@@H](O)[C@H]1C(=O)N[C@@H](CC)C(=O)N(C)CC(=O)N(C)[C@H](C)C(=O)N[C@@H](C(C)C)C(=O)N(C)[C@@H](C)C(=O)N[C@@H](C)C(=O)N[C@H](C)C(=O)N(C)[C@@H](CC(C)C)C(=O)N(C)[C@@H](CC(C)C)C(=O)N(C)[C@@H](C(C)C)C(=O)N1C` [Compound C3] (cyclo([MeBmt][Abu][Sar][dNMeA]V[NMeA]A[dA][NMeL][NMeL][NMeV])), the “% signal” value came to 13.43%, the IC50 is less than 2 µM and the “% inhibition of CsA binding” value amounted to 86.57%.
On the same counts, the results for `C/C=C/C[C@@H](C)[C@@H](O)[C@H]1C(=O)N[C@@H](CC)C(=O)N(C)CC(=O)N(C)[C@@H](Cc2ccccc2)C(=O)N[C@@H](C(C)C)C(=O)N(C)[C@@H](C)C(=O)N[C@@H](C)C(=O)N[C@H](C)C(=O)N(C)[C@@H](CC(C)C)C(=O)N(C)[C@@H](CC(C)C)C(=O)N(C)[C@@H](C(C)C)C(=O)N1C` [Compound C4] (cyclo([MeBmt][Abu][Sar][NMeF]V[NMeA]A[dA][NMeL][NMeL][NMeV])) are 4.12%, less than 2 µM and 95.88%.
Taken in the same sequence, the figures for `C/C=C/C[C@@H](C)[C@@H](O)[C@H]1C(=O)N[C@@H](CC)C(=O)N(C)CC(=O)N(C)CC(=O)N[C@@H](C(C)C)C(=O)N(C)[C@@H](C)C(=O)N[C@@H](C)C(=O)N[C@H](C)C(=O)N(C)[C@@H](CC(C)C)C(=O)N(C)[C@@H](CC(C)C)C(=O)N(C)[C@@H](C(C)C)C(=O)N1C` [Compound C5] (cyclo([MeBmt][Abu][Sar][Sar]V[NMeA]A[dA][NMeL][NMeL][NMeV])) were 9.09%, less than 2 µM and 90.91%.
For the compound `C/C=C/C[C@@H](C)[C@@H](O)[C@H]1C(=O)N[C@@H](CC)C(=O)N(C)CC(=O)N(C)[C@@H](CC(C)C)C(=O)N[C@@H](C(C)C)C(=O)N(C)[C@@H](C)C(=O)N[C@@H](C)C(=O)N[C@H](C)C(=O)N(C)[C@@H](CC(C)C)C(=O)N(C)[C@@H](CC(C)C)C(=O)N(C)[C@@H](C(C)C)C(=O)N1C` [Compound C6], the “% signal” value was found to be 7.29%, the concentration for half-maximal inhibition (IC50) is less than 2 µM and the “% inhibition of CsA binding” value amounted to 92.71%.
`C/C=C/C[C@@H](C)[C@@H](O)[C@H]1C(=O)N[C@@H](CC)C(=O)N(C)CC(=O)N(C)[C@@H]([C@@H](C)O)C(=O)N[C@@H](C(C)C)C(=O)N(C)[C@@H](C)C(=O)N[C@@H](C)C(=O)N[C@H](C)C(=O)N(C)[C@@H](CC(C)C)C(=O)N(C)[C@@H](CC(C)C)C(=O)N(C)[C@@H](C(C)C)C(=O)N1C` [Compound C7] (cyclo([MeBmt][Abu][Sar][NMeT]V[NMeA]A[dA][NMeL][NMeL][NMeV])): the “% signal” value turned out to be 2.65%, the IC50 was less than 2 µM and the “% inhibition of CsA binding” value is listed as 97.35%.
Taken in the same sequence, the figures for `C/C=C/C[C@@H](C)[C@@H](O)[C@H]1C(=O)N[C@@H](CC)C(=O)N(C)CC(=O)N(C)[C@@H]([C@@H](C)CC)C(=O)N[C@@H](CC(C)C)C(=O)N(C)[C@@H](C)C(=O)N[C@@H](C)C(=O)N[C@H](C)C(=O)N(C)[C@@H](CC(C)C)C(=O)N(C)[C@@H](CC(C)C)C(=O)N(C)[C@@H](C(C)C)C(=O)N1C` [Compound C9] (cyclo([MeBmt][Abu][Sar][NMeI]L[NMeA]A[dA][NMeL][NMeL][NMeV])) were 0.11%, less than 2 µM and 99.89%.
Turning to `C/C=C/C[C@@H](C)[C@@H](O)[C@H]1C(=O)N[C@@H](CC)C(=O)N(C)CC(=O)N(C)[C@@H](C)C(=O)N[C@@H](CC(C)C)C(=O)N(C)[C@@H](C)C(=O)N[C@@H](C)C(=O)N[C@H](C)C(=O)N(C)[C@@H](CC(C)C)C(=O)N(C)[C@@H](CC(C)C)C(=O)N(C)[C@@H](C(C)C)C(=O)N1C` [Compound C10] (cyclo([MeBmt][Abu][Sar][NMeA]L[NMeA]A[dA][NMeL][NMeL][NMeV])), the “% signal” value amounted to 0.56%, the IC50 was less than 2 µM and the “% inhibition of CsA binding” value is 99.44%.
Turning to `C/C=C/C[C@@H](C)[C@@H](O)[C@H]1C(=O)N[C@@H](CC)C(=O)N(C)CC(=O)N(C)[C@@H](Cc2ccccc2)C(=O)N[C@@H](CC(C)C)C(=O)N(C)[C@@H](C)C(=O)N[C@@H](C)C(=O)N[C@H](C)C(=O)N(C)[C@@H](CC(C)C)C(=O)N(C)[C@@H](CC(C)C)C(=O)N(C)[C@@H](C(C)C)C(=O)N1C` [Compound C12] (cyclo([MeBmt][Abu][Sar][NMeF]L[NMeA]A[dA][NMeL][NMeL][NMeV])), the “% signal” value was 3.22%, the IC50 was less than 2 µM and the “% inhibition of CsA binding” value came out at 96.78%.
On the same counts, the results for `C/C=C/C[C@@H](C)[C@@H](O)[C@H]1C(=O)N[C@@H](CC)C(=O)N(C)CC(=O)N(C)CC(=O)N[C@@H](CC(C)C)C(=O)N(C)[C@@H](C)C(=O)N[C@@H](C)C(=O)N[C@H](C)C(=O)N(C)[C@@H](CC(C)C)C(=O)N(C)[C@@H](CC(C)C)C(=O)N(C)[C@@H](C(C)C)C(=O)N1C` [Compound C13] (cyclo([MeBmt][Abu][Sar][Sar]L[NMeA]A[dA][NMeL][NMeL][NMeV])) are 2.70%, less than 2 µM and 97.30%.
For the compound `C/C=C/C[C@@H](C)[C@@H](O)[C@H]1C(=O)N[C@@H](CC)C(=O)N(C)CC(=O)N(C)[C@@H](CC(C)C)C(=O)N[C@@H](CC(C)C)C(=O)N(C)[C@@H](C)C(=O)N[C@@H](C)C(=O)N[C@H](C)C(=O)N(C)[C@@H](CC(C)C)C(=O)N(C)[C@@H](CC(C)C)C(=O)N(C)[C@@H](C(C)C)C(=O)N1C` [Compound C14] (cyclo([MeBmt][Abu][Sar][NMeL]L[NMeA]A[dA][NMeL][NMeL][NMeV])), the “% signal” value was 9.36% and the IC50 is less than 2 µM.
Regarding `C/C=C/C[C@@H](C)[C@@H](O)[C@H]1C(=O)N[C@@H](CC)C(=O)N(C)CC(=O)N(C)[C@@H]([C@@H](C)O)C(=O)N[C@@H](CC(C)C)C(=O)N(C)[C@@H](C)C(=O)N[C@@H](C)C(=O)N[C@H](C)C(=O)N(C)[C@@H](CC(C)C)C(=O)N(C)[C@@H](CC(C)C)C(=O)N(C)[C@@H](C(C)C)C(=O)N1C` [Compound C15] (cyclo([MeBmt][Abu][Sar][NMeT]L[NMeA]A[dA][NMeL][NMeL][NMeV])), the “% signal” value stood at 2.93%, the IC50 was less than 2 µM and the “% inhibition of CsA binding” value stood at 97.07%.
`C/C=C/C[C@@H](C)[C@@H](O)[C@H]1C(=O)N[C@@H](CC)C(=O)N(C)CC(=O)N(C)[C@@H](Cc2ccc(O)cc2)C(=O)N[C@@H](CC(C)C)C(=O)N(C)[C@@H](C)C(=O)N[C@@H](C)C(=O)N[C@H](C)C(=O)N(C)[C@@H](CC(C)C)C(=O)N(C)[C@@H](CC(C)C)C(=O)N(C)[C@@H](C(C)C)C(=O)N1C` [Compound C16] (cyclo([MeBmt][Abu][Sar][NMeY]L[NMeA]A[dA][NMeL][NMeL][NMeV])): the “% signal” value was determined as 2.56%, the half-inhibitory concentration (IC50) was less than 2 µM and the “% inhibition of CsA binding” value was found to be 97.44%.
Taken in the same sequence, the figures for `C/C=C/C[C@@H](C)[C@@H](O)[C@H]1C(=O)N[C@@H](CC)C(=O)N(C)CC(=O)N(C)[C@@H]([C@@H](C)CC)C(=O)N[C@@H](C)C(=O)N(C)CC(=O)N[C@@H](C)C(=O)N[C@H](C)C(=O)N(C)[C@@H](CC(C)C)C(=O)N(C)[C@@H](CC(C)C)C(=O)N(C)[C@@H](C(C)C)C(=O)N1C` [Compound C17] (cyclo([MeBmt][Abu][Sar][NMeI]A[Sar]A[dA][NMeL][NMeL][NMeV])) were 17.17%, less than 2 µM and 82.83%.
In the case of `C/C=C/C[C@@H](C)[C@@H](O)[C@H]1C(=O)N[C@@H](CC)C(=O)N(C)CC(=O)N(C)[C@@H](C)C(=O)N[C@@H](C)C(=O)N(C)CC(=O)N[C@@H](C)C(=O)N[C@H](C)C(=O)N(C)[C@@H](CC(C)C)C(=O)N(C)[C@@H](CC(C)C)C(=O)N(C)[C@@H](C(C)C)C(=O)N1C` [Compound C18] (cyclo([MeBmt][Abu][Sar][NMeA]A[Sar]A[dA][NMeL][NMeL][NMeV])), the “% signal” value was determined as 2.12% and the IC50 was less than 2 µM.
